# Assays:
# human NIS (hNIS) = molecular target: T1, human NIS (hNIS) (Homo sapiens, UniProt Q92911); experiment: inhibition of […]mTcO4 uptake in transduced HeLa cells; format: cell-based
# T1 sequence (Q92911 1-643): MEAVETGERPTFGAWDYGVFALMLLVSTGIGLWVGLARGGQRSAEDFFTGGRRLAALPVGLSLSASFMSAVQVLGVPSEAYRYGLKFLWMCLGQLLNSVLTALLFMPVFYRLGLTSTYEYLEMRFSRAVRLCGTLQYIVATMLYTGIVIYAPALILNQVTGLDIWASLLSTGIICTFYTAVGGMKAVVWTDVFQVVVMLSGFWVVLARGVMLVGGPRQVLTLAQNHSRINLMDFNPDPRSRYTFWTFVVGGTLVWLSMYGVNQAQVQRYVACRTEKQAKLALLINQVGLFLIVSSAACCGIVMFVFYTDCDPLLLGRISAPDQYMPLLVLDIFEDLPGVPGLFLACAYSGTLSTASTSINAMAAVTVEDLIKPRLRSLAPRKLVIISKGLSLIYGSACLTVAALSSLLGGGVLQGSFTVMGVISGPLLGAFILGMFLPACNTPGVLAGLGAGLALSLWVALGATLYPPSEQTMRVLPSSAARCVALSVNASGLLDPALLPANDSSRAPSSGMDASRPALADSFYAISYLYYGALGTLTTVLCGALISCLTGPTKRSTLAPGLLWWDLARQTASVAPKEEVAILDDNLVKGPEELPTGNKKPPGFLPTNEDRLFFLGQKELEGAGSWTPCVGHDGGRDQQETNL
# minke whale NIS (wNIS) = molecular target: T2, minke whale NIS (wNIS) (Balaenoptera acutorostrata, UniProt A0A384B8D1); experiment: as above; format: cell-based
# T2 sequence (A0A384B8D1 1-642): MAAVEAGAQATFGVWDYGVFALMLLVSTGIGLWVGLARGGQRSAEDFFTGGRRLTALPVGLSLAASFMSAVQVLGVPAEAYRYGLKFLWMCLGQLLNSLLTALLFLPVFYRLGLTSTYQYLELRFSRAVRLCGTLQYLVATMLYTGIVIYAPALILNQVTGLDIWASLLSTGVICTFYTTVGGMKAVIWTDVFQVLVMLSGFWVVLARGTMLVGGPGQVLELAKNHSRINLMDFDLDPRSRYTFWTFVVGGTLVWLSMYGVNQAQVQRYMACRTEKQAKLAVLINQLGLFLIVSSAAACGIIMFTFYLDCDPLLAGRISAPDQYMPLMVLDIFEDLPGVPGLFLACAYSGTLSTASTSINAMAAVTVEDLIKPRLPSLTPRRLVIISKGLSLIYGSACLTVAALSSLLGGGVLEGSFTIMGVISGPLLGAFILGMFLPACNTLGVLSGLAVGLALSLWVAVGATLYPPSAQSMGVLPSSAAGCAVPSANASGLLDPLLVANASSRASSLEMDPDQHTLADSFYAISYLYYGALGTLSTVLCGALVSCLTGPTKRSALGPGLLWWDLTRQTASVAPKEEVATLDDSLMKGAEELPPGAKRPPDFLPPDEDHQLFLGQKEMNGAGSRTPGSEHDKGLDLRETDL
structure (smiles),measurement,setting,value
[O-][Cl+3]([O-])([O-])O [perchlorate],IC50,human NIS (hNIS),195 nM
same,IC50,minke whale NIS (wNIS),2860 nM

# Source: article PMC7791078 (Molecular Therapy, 2020)
